Source: ChEMBL document CHEMBL1145717, “Nostopeptins A and B, Elastase Inhibitors from the Cyanobacterium Nostoc minutum” (J Nat Prod, 1997)
In brackets after ≈: the same amount, converted by molar mass. Activity calls are given as the source filed them. The rule behind the calls is not given here.

Experiments:
[1] = Inhibition of chymotrypsin
[2] = Inhibition of elastase
[3] = biological target: Plasminogen (Homo sapiens) (UniProt P00747); assay: Inhibition of plasmin at 100 ug/ml
[4] = biological target: Prothrombin (Homo sapiens) (UniProt P00734); assay: Inhibition of thrombin at 100 ug/ml
[5] = biological target: T1, Papain (Carica papaya) (UniProt P00784); assay: Inhibition of papaya papain at 100 ug/ml
T1 sequence (whole entry): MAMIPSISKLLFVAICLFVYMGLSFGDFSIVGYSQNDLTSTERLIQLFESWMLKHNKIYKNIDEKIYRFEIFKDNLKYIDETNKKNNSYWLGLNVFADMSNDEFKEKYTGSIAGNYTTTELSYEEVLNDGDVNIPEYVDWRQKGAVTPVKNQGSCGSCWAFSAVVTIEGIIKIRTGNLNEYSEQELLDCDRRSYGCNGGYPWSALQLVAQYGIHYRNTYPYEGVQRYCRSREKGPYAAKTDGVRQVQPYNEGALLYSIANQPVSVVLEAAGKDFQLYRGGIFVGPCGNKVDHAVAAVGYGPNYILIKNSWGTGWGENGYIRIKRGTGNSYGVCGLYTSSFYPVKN

[6] = Inhibition of trypsin at 100 ug/ml

Sequence of Plasminogen (Homo sapiens) (P00747 97-580 limits assumed): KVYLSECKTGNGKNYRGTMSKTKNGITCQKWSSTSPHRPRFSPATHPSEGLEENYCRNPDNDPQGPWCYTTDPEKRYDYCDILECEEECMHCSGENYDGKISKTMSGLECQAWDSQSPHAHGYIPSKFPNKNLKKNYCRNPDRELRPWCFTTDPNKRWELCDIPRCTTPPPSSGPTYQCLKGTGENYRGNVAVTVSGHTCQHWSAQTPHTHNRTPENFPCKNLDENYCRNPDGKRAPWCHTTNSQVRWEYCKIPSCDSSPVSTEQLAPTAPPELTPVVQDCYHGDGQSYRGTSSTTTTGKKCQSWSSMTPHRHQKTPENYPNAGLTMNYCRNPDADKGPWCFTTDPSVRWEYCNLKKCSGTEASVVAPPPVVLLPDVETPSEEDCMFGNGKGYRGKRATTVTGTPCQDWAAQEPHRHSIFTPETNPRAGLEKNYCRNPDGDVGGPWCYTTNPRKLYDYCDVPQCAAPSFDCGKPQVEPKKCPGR
Sequence of Plasminogen (Homo sapiens) (P00747 581-810 limits assumed): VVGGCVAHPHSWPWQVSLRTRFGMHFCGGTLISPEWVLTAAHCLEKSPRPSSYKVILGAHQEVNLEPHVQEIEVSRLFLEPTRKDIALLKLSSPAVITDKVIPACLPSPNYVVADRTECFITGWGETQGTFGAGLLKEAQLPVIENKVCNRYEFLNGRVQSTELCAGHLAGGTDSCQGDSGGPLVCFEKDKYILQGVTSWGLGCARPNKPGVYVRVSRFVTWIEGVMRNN

Row | IC50 [1] [µg/mL] | IC50 [2] [µg/mL] | Activity [3] | Activity [4] | Activity [5] | Activity [6] | Structure (SMILES)
1 | 1.6 (≈ 1.73 µM) | 11 (≈ 11.9 µM) | inactive | inactive | inactive | inactive | CC[C@H](C)[C@@H]1NC(=O)[C@H](Cc2ccc(O)cc2)N(C)C(=O)[C@H]([C@@H](C)CC)N2C(=O)C(CCC2O)NC(=O)[C@H](CC(C)C)NC(=O)[C@@H]2C(OC1=O)C(C)CN2C(=O)[C@H](CCC(N)=O)NC(C)=O (some centres not stated) [NOSTOPEPTIN B]
2 | 1.4 (≈ 1.47 µM) | 1.3 (≈ 1.36 µM) | inactive | inactive | inactive | inactive | CCCC(=O)N[C@@H](CCC(N)=O)C(=O)N1CC(C)C2OC(=O)[C@H]([C@@H](C)CC)NC(=O)[C@H](Cc3ccc(O)cc3)N(C)C(=O)[C@H]([C@@H](C)CC)N3C(=O)C(CCC3O)NC(=O)[C@H](CC(C)C)NC(=O)[C@H]21 (some centres not stated) [NOSTOPEPTIN A]
